Reference: ChEMBL document CHEMBL2401682, “Evaluation of Jatropha isabelli natural products and their synthetic analogs as potential antimalarial therapeutic agents” (Eur J Med Chem, 2013)

Experiments:
[1] = tested on: Raji; test: Cytotoxicity against human Raji cells after 72 hrs by celltiter-glo assay; type: cell-based
[2] = tested on: Plasmodium falciparum; test: Antimalarial activity against chloroquine-sensitive Plasmodium falciparum 3D7 infected in O-positive erythrocytes assessed as parasite growth inhibition after 72 hrs by DNA staining-based assay; type: functional, organism-based; conditions: 3D7, 72 h
[3] = tested on: HEK293; test: Cytotoxicity against HEK293 cells after 72 hrs by celltiter-glo assay; type: cell-based; conditions: Homo sapiens, HEK293, 72 h
[4] = tested on: HepG2; test: Cytotoxicity against human HepG2 cells after 72 hrs by celltiter-glo assay; type: cell-based; conditions: HepG2, 72 h
[5] = tested on: Plasmodium falciparum; test: Antimalarial activity against chloroquine and pyrimethamine-resistant Plasmodium falciparum K1 infected in O-positive erythrocytes assessed as parasite growth inhibition after 72 hrs by DNA staining-based assay; type: functional, organism-based; conditions: K1, 72 h
[6] = tested on: BJ; test: Cytotoxicity against human BJ cells after 72 hrs by celltiter-glo assay; type: cell-based

C/C1=C/C2=C[C@H](C)C[C@@]23O[C@]2(CC(C)(C)C[C@@H]2[C@@]1(O)C#N)[C@@H](C)C3=O
EC50 [1]: 26 µM | EC50 [2]: 15 µM | EC50 [3]: 8.66 µM | EC50 [4]: 26 µM | EC50 [5]: 15 µM | EC50 [6]: 26 µM

COC(=O)C1=C2C[C@@H]3CC[C@@H](C)[C@]2(CC1)C3(C)C
EC50 [1]: 26 µM | EC50 [2]: 15 µM | EC50 [3]: 26 µM | EC50 [4]: 26 µM | EC50 [5]: 15 µM | EC50 [6]: 26 µM

CC(=O)O[C@H]1/C=C/C(C)(C)CC2=C(C)[C@@H](OC(C)=O)[C@]3(C[C@@H](C)C=C3/C=C\1C)O2
EC50 [1]: 26 µM | EC50 [2]: 5.68 µM | EC50 [3]: 26 µM | EC50 [4]: 26 µM | EC50 [5]: 15 µM | EC50 [6]: 26 µM

C=C1/C=C/C(C)(C)CC2=C(C)C(=O)[C@]3(C[C@@H](C)C=C3/C=C\1C)O2
EC50 [1]: 26 µM | EC50 [2]: 15 µM | EC50 [3]: 26 µM | EC50 [4]: 26 µM | EC50 [5]: 15 µM | EC50 [6]: 26 µM

CC1=C2CC(C)(C)[C@@H]3C=C(OC3)/C(C)=C\C3=C[C@H](C)C[C@]3(O2)C1=O
EC50 [1]: 26 µM | EC50 [2]: 15 µM | EC50 [3]: 26 µM | EC50 [4]: 26 µM | EC50 [5]: 15 µM | EC50 [6]: 26 µM

C/C1=C/C2=C[C@H](C)C[C@@]23O[C@]2(CC(C)(C)C4CC1(ON4)O2)C(C)C3=O (stereo partly drawn)
EC50 [1]: 26 µM | EC50 [2]: 15 µM | EC50 [3]: 26 µM | EC50 [4]: 26 µM | EC50 [5]: 15 µM | EC50 [6]: 26 µM

CC(=O)O[C@H]1/C=C/C(C)(C)CC2=C(C)C(=O)[C@]3(C[C@@H](C)C=C3/C=C\1C)O2
EC50 [1]: 26 µM | EC50 [2]: 3.2 µM | EC50 [3]: 26 µM | EC50 [4]: 26 µM | EC50 [5]: 15 µM | EC50 [6]: 26 µM

CC1=C2CC(C)(C)/C=C/C(=O)/C(C)=C\C3=C[C@H](C)C[C@]3(O2)[C@@]1(O)C#N
EC50 [1]: 21.2 µM | EC50 [2]: 15 µM | EC50 [3]: 26 µM | EC50 [4]: 26 µM | EC50 [5]: 15 µM | EC50 [6]: 26 µM

C/C1=C/C2=C[C@H](C)C[C@@]23O[C@]2(CC(C)(C)[C@@H](Nc4ccccc4)[C@@H]2C1=O)[C@@H](C)C3=O
EC50 [1]: 26 µM | EC50 [2]: 8.88 µM | EC50 [3]: 26 µM | EC50 [4]: 26 µM | EC50 [5]: 5.58 µM | EC50 [6]: 12.6 µM

CC(=O)O[C@H]1CC[C@]2(C)[C@H]3CC[C@]4(C)C(=CC[C@@]5(C(=O)O)CCC(C)(C)C[C@H]54)[C@]3(C)CC[C@H]2C1(C)C [ACETYL ALEURITOLIC ACID]
EC50 [1]: 26 µM | EC50 [2]: 15 µM | EC50 [3]: 26 µM | EC50 [4]: 26 µM | EC50 [5]: 15 µM | EC50 [6]: 26 µM

CO[C@H]1[C@@H]2C(=O)/C(C)=C\C3=C[C@H](C)C[C@@]34O[C@]2(CC1(C)C)[C@@H](C)C4=O
EC50 [1]: 26 µM | EC50 [2]: 15 µM | EC50 [3]: 26 µM | EC50 [4]: 26 µM | EC50 [5]: 15 µM | EC50 [6]: 26 µM

C/C1=C/C2=C[C@H](C)C[C@@]23O[C@]2(CC(C)(C)C[C@@H]2[C@@]1(O)C(F)(F)F)[C@@H](C)C3=O
EC50 [1]: 26 µM | EC50 [2]: 15 µM | EC50 [3]: 26 µM | EC50 [4]: 26 µM | EC50 [5]: 15 µM | EC50 [6]: 26 µM

COc1ccc(/C2=C\C(=O)/C(C)=C\C3=C[C@H](C)C[C@@]34OC(=C(C)C4=O)CC2(C)C)cc1
EC50 [1]: 26 µM | EC50 [2]: 15 µM | EC50 [3]: 26 µM | EC50 [4]: 26 µM | EC50 [5]: 15 µM | EC50 [6]: 26 µM

C/C1=C/C2=C[C@H](C)C[C@@]23O[C@]2(CC(C)(C)[C@@H](Br)[C@@H]2C1=O)[C@](C)(Br)C3=O
EC50 [1]: 4.38 µM | EC50 [2]: 15 µM | EC50 [3]: 26 µM | EC50 [4]: 26 µM | EC50 [5]: 15 µM | EC50 [6]: 26 µM

CC1=C2CC(C)(C)/C=C/[C@@H](O)/C(C)=C\C3=C[C@H](C)C[C@]3(O2)C1=O
EC50 [1]: 26 µM | EC50 [2]: 0.744 µM | EC50 [3]: 26 µM | EC50 [4]: 26 µM | EC50 [5]: 15 µM | EC50 [6]: 26 µM

C/C1=C/C2=C[C@H](C)C[C@@]23O[C@]2(CC(C)(C)[C@@H](OC(C)C)[C@@H]2C1=O)[C@@H](C)C3=O
EC50 [1]: 26 µM | EC50 [2]: 15 µM | EC50 [3]: 26 µM | EC50 [4]: 26 µM | EC50 [5]: 15 µM | EC50 [6]: 26 µM

CC1=C2CC(C)(C)/C(c3ccccc3)=C/C(=O)/C(C)=C\C3=C[C@H](C)C[C@]3(O2)C1=O
EC50 [1]: 26 µM | EC50 [2]: 15 µM | EC50 [3]: 26 µM | EC50 [4]: 26 µM | EC50 [5]: 15 µM | EC50 [6]: 26 µM

CC1=C2CC(C)(C)CCC(=O)C(C)CC3=C[C@H](C)C[C@]3(O2)C1=O (mixture of isomers)
EC50 [1]: 26 µM | EC50 [2]: 15 µM | EC50 [3]: 26 µM | EC50 [4]: 26 µM | EC50 [5]: 15 µM | EC50 [6]: 26 µM

CC1=C2CC(C)(C)/C=C/[C@H](O)/C(C)=C\C3=C[C@H](C)C[C@]3(O2)C1=O
EC50 [1]: 26 µM | EC50 [2]: 9.23 µM | EC50 [3]: 26 µM | EC50 [4]: 18.7 µM | EC50 [5]: 15 µM | EC50 [6]: 10.6 µM

CC1=C2CC(C)(C)/C=C/[C@H](OC(=S)n3ccnc3)/C(C)=C\C3=C[C@H](C)C[C@]3(O2)C1=O
EC50 [1]: 26 µM | EC50 [2]: 5.67 µM | EC50 [3]: 26 µM | EC50 [4]: 26 µM | EC50 [5]: 5.85 µM | EC50 [6]: 26 µM

C=C1CC[C@H]2[C@@H](c3c(C)c(OC(C)=O)c4c(c31)C(=O)C(C)C4)C2(C)C (stereo partly drawn)
EC50 [1]: 26 µM | EC50 [2]: 15 µM | EC50 [3]: 26 µM | EC50 [4]: 26 µM | EC50 [5]: 6.31 µM | EC50 [6]: 26 µM

CC1=C2CC(C)(C)/C=C/C(=O)/C(C)=C\C3=C[C@H](C)C[C@]3(O2)[C@]1(C)O
EC50 [1]: 26 µM | EC50 [2]: 0.624 µM | EC50 [3]: 26 µM | EC50 [4]: 26 µM | EC50 [5]: 15 µM | EC50 [6]: 26 µM

C[C@@H]1C[C@@]23O[C@@]45CC(C)(C)[C@@H](Sc6ccccc6)[C@@H]4C(=O)C(C)(C=C2[C@H]1Sc1ccccc1)[C@]3(O)[C@@H]5C (stereo partly drawn)
EC50 [1]: 26 µM | EC50 [2]: 6.45 µM | EC50 [3]: 26 µM | EC50 [4]: 26 µM | EC50 [5]: 5.57 µM | EC50 [6]: 26 µM

C[C@@H]1CC[C@H]2CC3C(=O)CC[C@@]31C2(C)C (stereo partly drawn)
EC50 [1]: 26 µM | EC50 [2]: 15 µM | EC50 [3]: 26 µM | EC50 [4]: 26 µM | EC50 [5]: 15 µM | EC50 [6]: 26 µM

CC1=C2CC(C)(C)CCC(=O)C(C)CC3C[C@H](C)C[C@]3(O2)C1=O (mixture of isomers)
EC50 [1]: 26 µM | EC50 [2]: 15 µM | EC50 [3]: 26 µM | EC50 [4]: 26 µM | EC50 [5]: 15 µM | EC50 [6]: 26 µM

CC1=C2CC(C)(C)/C=C/C/C(C)=C\C3=C[C@H](C)C[C@]3(O2)C1=O
EC50 [1]: 26 µM | EC50 [2]: 15 µM | EC50 [3]: 26 µM | EC50 [4]: 26 µM | EC50 [5]: 15 µM | EC50 [6]: 26 µM

C[C@@H]1CC[C@H]2CC3=C(C(=O)O)CC[C@@]31C2(C)C
EC50 [1]: 26 µM | EC50 [2]: 15 µM | EC50 [3]: 26 µM | EC50 [4]: 26 µM | EC50 [5]: 15 µM

C[C@@H]1CC[C@H]2CC3=C(C=O)CC[C@@]31C2(C)C
EC50 [1]: 26 µM | EC50 [2]: 15 µM | EC50 [3]: 26 µM | EC50 [4]: 26 µM | EC50 [5]: 15 µM | EC50 [6]: 26 µM

CC1=C2CC(C)(C)[C@@H](C)CC(=O)/C(C)=C\C3=C[C@H](C)C[C@]3(O2)C1=O
EC50 [1]: 26 µM | EC50 [2]: 15 µM | EC50 [3]: 26 µM | EC50 [4]: 26 µM | EC50 [5]: 15 µM | EC50 [6]: 26 µM
